{"source": "patent US20040005294A1", "about": "“IGFBP-3 in the diagnosis and treatment of cancer” (priority 2002, published 2004)", "key": {"1799 cells": {"system": "1799 cells", "assay": "MTT proliferation assay, 1799 cells", "type": "cell-based, human", "settings": "2×10^−6 M or 4×10^−6 M, 2 days", "procedure": "To measure the effects of deguelin on cell proliferation, NHBE, 1799, 1198, 1170-1, and HB56B cells were plated at concentrations of 2×10^3 to 4×10^3 cells/well in 96-well plates. The next day, cells were treated with either 0.1% DMSO as a diluent control or various concentrations of deguelin (final DMSO concentration=0.1%). At the end of the assay time period, cell proliferation was measured by the 3-(4,5-dimethylthiazol-2-yl)-2,5-diphenyltetrazolium bromide (MTT) assay as described (Lee et al., 2002). Six replicate wells were used for each analysis, and data from replicate wells are presented as means with 95% confidence intervals (CIs). For some experiments, the drug concentration required to inhibit cell growth by 50% (IC50) was determined by interpolation from dose-response curves. At least three independent experiments were performed.\nTo determine whether deguelin-induced antiproliferative effects on premalignant HBE cells were mediated through the inhibition of the PI3K/Akt pathway, 2×10^5 1799 cells/well or 1×10 ^6 squamous HBE cells/well in six-well plates were infected with 5×10 ^3 particles/cell of a control virus (Ad5CMV) or with 1×10^3 or 5×10^3 particles/cell of Ad5CMV-MyrAkt-HA, an adenoviral vector that expresses a constitutively active Akt. (MyrAkt) in KSFM. After 1 day of infection, cells were treated with 10^−7M or 10^−6M deguelin, 2×10^−6 M or 4×10^−6M N-(4-hydroxyphenyl)retinamide (4-HPR), or 0.1% DMSO as a control and then incubated for 1 or 2 days. Apoptosis was analyzed using the APO-BrdU staining kit for TUNEL, Western blot analyses for caspase-3, and the cleavage of PARP."}, "[1]": {"system": "PI3K/Akt pathway in 1799 cells", "assay": "Immunoblot of pAkt and pGSK-3β, 1799 cells", "type": "cell-based, human", "settings": "2-4 μM", "procedure": "Whole cell lysates from 1×10^6 cells were prepared in lysis buffer as described (Lonardo et al., 2002). Equivalent amounts of protein were resolved by sodium dodecyl sulfate (SDS)-polyacrylamide gels (7.5%-12%) and transferred to a nitrocellulose membrane. After the membrane was blocked in Tris-buffered saline (TBS) containing 0.05% Tween 20 (TBST) and 5% (w/v) nonfat powdered milk, the membrane was incubated with primary antibody at the appropriate dilution in TBS-5% nonfat milk at 4° C. for 16 h. The membrane was then washed multiple times with TBST and incubated with the appropriate horseradish peroxidaseconjugated secondary antibody for 1 h at room temperature. The protein-antibody complexes were detected by enhanced chemilurminescence (ECL kit; Amersham, Arlington Heights, Ill.), according to the manufacturer's recommended protocol. […]"}, "[2]": {"system": "IGFBP-3 mRNA in H1299 cells", "assay": "Northern blot of IGFBP-3 expression after demethylating agent", "type": "cell-based, human", "settings": "5 days, RPMI 1640 with 2% FCS", "procedure": "NSCLC cell lines and H1299 cells treated with 0.1, 1, or 5 μM of 5-aza-dC (Sigma, St. Luois, Mo.) for 5 days in RPMI 1640 medium containing 2% FCS were lysed in 4.0 M guanidinium isothiocyanate, and total cellular RNA was extracted as described previously (Kim et al., 1995). 20 μg of RNA was subjected to electrophoresis on a 1% agarose gel containing 2% formaldehyde. After gels were soaked in 50 mM NaOH/1×standard saline citrate (SSC) for 20 min followed by 10×SSC for 20 min, RNA was transferred onto a Zeta-Probe membrane (Bio-Rad Laboratories, Hercules, Calif.) overnight by the capillary transfer method. Membranes were cross-linked and then incubated in the hybridization solution containing […] IGFBP-3 or glyceraldehyde-3-phosphate dehydrogenase (GAPDH) cDNA as a control. The probe was labeled using a Prime-It® II Random Primer Kit (Stratagene, La Jolla, Calif.) and harvested with MicroSpin™ S-300 HR Columns (Amersham Phamacia Biotech Inc., Piscataway, N.J.). After overnight incubation, membranes were washed in high stringency condition and exposed to enhanced chemiluminescence (ECL) films for autoradiography."}, "H1299 cells": {"system": "H1299 cells", "assay": "Apoptosis by APO-BRDU staining and flow cytometry", "type": "cell-based, human", "settings": "serum-free medium, 100 ng/ml IGF-I, 3 days", "procedure": "Apoptosis was measured using the APO-BRDU staining kit (Phoenix Flow Systems, San Diego, Calif.) as previously described (Sueoka et al., 2000). Briefly, H1299 cells were untreated or infected with Ad5CMV or Ad5CMV-BP3, and then allowed to grow in serum-free medium or medium containing 10% serum or 100 ng/ml IGF-I for 3 days. Floating and adherent cells were analyzed using a FACScan flow cytometer (Becton Dickinson, San Jose, Calif.) to determine the percentage of apoptotic cells. The percentage of dead cells was determined by FACS analysis of propidium iodide-stained nuclei. Apoptosis was also determined by detecting of nucleosomal DNA fragmentation, which was measured using the TACS apoptotic DNA laddering kit (Trevigen, Inc., Gaithersburg, Md.) according to the manufacturer's protocol. Briefly, DNA was isolated from untreated or virus-infected H1299 cells by incubating the cells in lysis buffer. DNA samples were then subjected to electrophoresis on a 1.5% agarose gel and visualized by ethidium bromide staining. […] Apoptosis was measured using the APO-BRDU staining kit as described above."}, "NSCLC cell lines": {"system": "NSCLC cell lines", "assay": "MTT cell growth assay, NSCLC cell lines", "type": "cell-based, human", "settings": "serum-free medium, 3 days", "procedure": "To measure the effects of IGF-I and IGF-II on proliferation of NSCLC cells, 2×10^3 NSCLC cell lines were incubated in serum-free medium containing 0.01-500 ng/ml IGF-I or IGF-II for 3 days. To measure the effects of Ad5CMV-BP-3 on proliferation of NHBE and NSCLC cell lines, these cells were seeded at 1×10^−2×10^3 cells/well in 96-well plates. After 1 day, cells were untreated or infected with 1×10^3, 5×10^3, or 1×10^4 particles/cell of Ad5CMV-BP3 or Ad5CMV (parental virus) as a viral control. Infection was allowed to occur for 2 h in the absence of serum, and infected cells were grown in medium containing 100 ng/ml or 250 ng/ml IGF-I. After 3 days of incubation, the growth of infected cells was measured by the 3-(4,5-dimethylthiazol-2-yl)-2,5-diphenyltetrazolium bromide (MTT) assay as previously described (Sueoka et al., 2000)."}, "IGF-I": {"target": "IGF-I (Homo sapiens, UniProt P05019)", "sequence (P05019 49-118 limits assumed, species assumed)": "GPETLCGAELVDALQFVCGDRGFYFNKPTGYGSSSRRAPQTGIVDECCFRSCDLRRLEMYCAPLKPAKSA", "sequence (P17936 28-291 partner, species assumed)": "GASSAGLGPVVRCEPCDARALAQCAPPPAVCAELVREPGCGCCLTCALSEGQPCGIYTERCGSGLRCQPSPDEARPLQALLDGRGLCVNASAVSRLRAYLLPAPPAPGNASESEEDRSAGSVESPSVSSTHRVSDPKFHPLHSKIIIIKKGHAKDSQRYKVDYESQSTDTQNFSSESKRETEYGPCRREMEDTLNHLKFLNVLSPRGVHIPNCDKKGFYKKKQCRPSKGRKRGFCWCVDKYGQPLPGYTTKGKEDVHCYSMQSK", "assay": "Western ligand blot of conditioned media", "type": "binding", "settings": "conditioned media of Ad5CMV-BP3-infected H1299 cells, [125I]IGF-I probe", "procedure": "Conditioned media were collected from H1299 cells after adenoviral infection. Western blot and Western ligand blot analyses were performed using 30 μg of whole cell lysate or 30 μl of conditioned media as previously described (Sueoka et al., 2000)."}, "chick embryo CAM": {"system": "chick embryo CAM", "assay": "Chorioallantoic membrane angiogenesis induced by bFGF", "type": "in vivo", "settings": "bFGF 50 ng alone, 72 h; positive eggs/total", "procedure": "To assess whether IGFBP-3 is able to inhibit angiogenesis chick embryos were induced with IGFBP3 and dnIGFIR. On day 10, each CAM was exposed to bFGF (50 ng/disk) in the absence or presence of 10^4 particles of Ad5CMV alone, Ad5CMV-IGFBP3, or Ad5CMV-dnIGFIR. After 72 h of incubation, a fat emulsion was injected into the CAM to visualize the blood vessels. CAMs were examined with a microscope to count the positive responsive eggs which have spoke wheel-like vessels. Both IGFBP3 and dnIGFIR inhibited chorioallantoic membrane angiogenesis induced by bFGF FIG. 14. The results are expressed as the percentages of embryos showing activation (FIG. 14A). Positivity for angiogenesis in chick embryos subjected to various conditions was as follows: Collagen alone: 1/5; bFGF (50 ng): 5/5; EV(10^4)+bFGF: 7/8; IGFBP3(10^4)+bFGF: 4/9; dnAKT (10^4)+bFGF: 8/9; dnIGFR (10^4)+bFGF: 4/9; and KP372 (100 nM)+bFGF: 8/9."}}, "data": [{"molecule": "CC1=C(/C=C/C(C)=C/C=C/C(C)=C/C(=O)Nc2ccc(O)cc2)C(C)(C)CCC1", "note": "[4-HPR, N-(4-hydroxyphenyl)retinamide, reference compound]", "values": [{"measurement": "cell proliferation, control versus constitutively active Akt", "setting": "1799 cells", "value": "no difference in cell proliferation"}, {"measurement": "levels of pAkt and pGSK-3β", "setting": "[1]", "value": "did not alter levels of pAkt and pGSK-3β"}]}, {"molecule": "Nc1ncn([C@H]2C[C@H](O)[C@@H](CO)O2)c(=O)n1", "note": "[5-aza-dC]", "values": [{"measurement": "concentration reactivating IGFBP-3 expression", "setting": "[2]", "value": "More than 1 μM"}]}, {"molecule": "IGF-I: insulin-like growth factor I, purchased from R&D Systems", "values": [{"measurement": "effect on serum depletion-induced apoptosis", "setting": "H1299 cells", "value": "rescued H1299 cells from serum depletion-induced apoptosis"}, {"measurement": "concentration inducing growth of NSCLC cell lines", "setting": "NSCLC cell lines", "value": "> 10", "unit": "ng/mL"}]}, {"molecule": "IGF-II: IGF-II purchased from R&D Systems", "values": [{"measurement": "mitogenic effect on NSCLC cell growth", "setting": "NSCLC cell lines", "value": "minimal mitogenic effect"}]}, {"molecule": "IGFBP-3: insulin growth factor binding protein 3 secreted from Ad5CMV-BP3-infected H1299 cells", "values": [{"measurement": "binding of secreted IGFBP-3 to IGF-I", "setting": "IGF-I", "value": "bound strongly"}]}, {"molecule": "bFGF: angiogenesis inducer, 50 ng/disk, in the CAM assay", "values": [{"measurement": "positivity for angiogenesis in chick embryos", "setting": "chick embryo CAM", "value": "5/5"}]}]}
